Results published in PubChem BioAssay (NCI).
Several values for one entry are separate records, joined by “and”; a condition that tells them apart may be missing. Identical values can stand only once.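 How tested: cells in 96-well plates exposed to compound for 48 hours at five concentrations. TGI: total growth inhibition.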

How the values were obtained:
Experiment in all cases: NCI tumour cell line growth inhibition, 48 h
[1] = tested on: LXFL 529 NSCLC
[2] = tested on: DLD-1 colon
[3] = tested on: MDA-N
[4] = tested on: SNB-78 CNS
[5] = tested on: HOP-18 NSCLC
[6] = tested on: RXF-631 renal
[7] = tested on: XF 498 CNS
[8] = tested on: DMS 273 small cell lung
[9] = tested on: T-47D breast
[10] = tested on: SN12K1 renal
[11] = tested on: P388/ADR leukemia
[12] = tested on: P388 leukemia

Row | Structure (SMILES) | TGI [1] | TGI [2] | TGI [3] | TGI [4] | TGI [5] | TGI [6] | TGI [7] | TGI [8] | TGI [9] | TGI [10] | TGI [11] | TGI [12]
1 | Nc1ccc2cc3ccc(N)cc3nc2c1 | 10.3 µM | 10.5 µM | 3.79 µM and 2.77 µM | 9.23 µM | 8.41 µM | 4.41 µM | 5.8 µM | 3.33 µM | 14.9 µM and 9.61 µM and 8.53 µM | – | – | –
2 | CCCSc1nc(COC(=O)NC)c(COC(=O)NC)n1C | > 100 µM | > 100 µM | – | > 100 µM | > 100 µM | – | > 100 µM | > 100 µM | – | > 100 µM | 61.8 µM | 54.8 µM
